From US20090018111A1, “Novel Antimicrobial Medicament” (priority 2004, published 2009)
Read-outs that look alike come from different tables or passages of the source.

Tests used:
Test in all cases: Sensitivity test (agar dilution)
[1] = system: S. aureus 209P; format: cell-based, Staphylococcus aureus; settings: Staphylococcus aureus, 209P, S. aureus 209P
Protocol: (§1) The antibacterial activities were tested against various 18 bacteria (27 standard strains) which are representative bacteria caused clinically infectious disease (Staphylococcus aureus 3 strains, Staphylococcus epidermidis 1 strain, Micrococcus luteus 1 strain, Streptococcus pyogenes 1 strain, Enterococcus faecalis 1 strain, Enterococcus faecium 1 strain, Bacillus subtilis 1 strain, Escherichia coli 3 strains, Klebsiella pneumoniae 1 strain, Proteus mirabilis 1 strain, Proteus vulgaris 2 strains, Pseudomonas aeruginosa 3 strains, Serratia marcescens 2 strains, Enterobacter aerogenes 1 strain, Stenotrophomonas maltophilia 1 strain, Enterobacter cloacae 1 strain, Citrobacter freundii 1 strain, Moraxella catarrhalis 2 strains).
(§2) According to the standard method of Japan Chemotherapeutic Society (Chemotherapy, vol. […], p 76-79 (1981)) the test was carried out using the agar dilution method. After dissolving test samples in distilled water, agar medium containing the test samples was prepared in such a manner that the final concentration became twice serial dilution by pouring serially diluted combination drug solution or a single drug solution into agar medium. As agar medium was used Mueller Hinton Agar medium (MHA). Then, each strain was cultivated over night at 37° C. in an incubator and suspended in buffered saline solution with gelatin (BSG) in the concentration of about 10^6 CFU/ml. The suspension (about 5 μl) containing test strains was inoculated to the medium containing the test samples by Micro Planter.
(§3) When the sample is subjected to sensitivity test, this mixed solution was diluted by twice serial dilution method.
(§4) Furthermore, when the drug is solely used, each test sample was used as it is, and diluted by twice serial dilution method from the maximum concentration to the minimum concentration.
(§5) FIC index based on MIC value was calculated. […] Namely, when FIC index calculated by the following formula is equal or less than 1, the enhanced effect of the combination drug in said ratio is considered as positive. When FIC index is over 1, the enhanced effect of the combination drug in said ratio is considered as negative.
(§6) Formula of FIC index: FIC index=(MIC of Drug A in combination/MIC of Drug A alone)+(MIC of Drug B in combination/MIC of Drug B alone) N.C. in tables means being not calculated.

[2] = system: S. aureus MS94088 (hetero-MRSA); format: cell-based, Staphylococcus aureus; settings: Staphylococcus aureus, MRSA, S. aureus MS94088 (hetero-MRSA)
Protocol: as §1, §2, §3, §4, §5, §6

[3] = system: S. aureus SP-7928 (homo-MRSA); format: cell-based, Staphylococcus aureus; settings: Staphylococcus aureus, MRSA, S. aureus SP-7928 (homo-MRSA)
Protocol: as §1, §2, §3, §4, §5, §6

[4] = system: S. epidermidis IAM1296; format: cell-based, Staphylococcus epidermidis; settings: Staphylococcus epidermidis, S. epidermidis IAM1296
Protocol: as §1, §2, §3, §4, §5, §6

[5] = system: E. faecalis ATCC19433; format: cell-based, Enterococcus faecalis; settings: Enterococcus faecalis, E. faecalis ATCC19433
Protocol: as §1, §2, §3, §4, §5, §6

[6] = system: E. coli ML1410; format: cell-based, Escherichia coli; settings: Escherichia coli, E. coli ML1410
Protocol: as §1, §2, §3, §4, §5, §6

[7] = system: E. coli NIHJ JC-2; format: cell-based, Escherichia coli; settings: Escherichia coli, E. coli NIHJ JC-2
Protocol: as §1, §2, §3, §4, §5, §6

[8] = system: P. vulgaris GN7919; format: cell-based, Proteus vulgaris; settings: Proteus vulgaris, P. vulgaris GN7919
Protocol: as §1, §2, §3, §4, §5, §6

[9] = system: P. vurgalis OX-19; format: cell-based, Proteus vulgaris; settings: Proteus vulgaris, P. vurgalis OX-19
Protocol: as §1, §2, §3, §4, §5, §6

[10] = system: S. marcescens GN6473; format: cell-based, Serratia marcescens; settings: Serratia marcescens, S. marcescens GN6473
Protocol: as §1, §2, §3, §4, §5, §6

[11] = system: S. marcescens X 100; format: cell-based, Serratia marcescens; settings: Serratia marcescens, S. marcescens X 100
Protocol: as §1, §2, §3, §4, §5, §6

[12] = system: E. cloacae GN7471; format: cell-based, Enterobacter cloacae; settings: Enterobacter cloacae, E. cloacae GN7471
Protocol: as §1, §2, §3, §4, §5, §6

[13] = system: C. freundii GN346; format: cell-based, Citrobacter freundii; settings: Citrobacter freundii, C. freundii GN346
Protocol: as §1, §2, §3, §4, §5, §6

[14] = Concomitant (BIPM:SM = 1:1), read-out: MIC concomitant
[15] = drug alone, read-out: MIC alone

Question: What does the source list for `C[C@@H](O)[C@H]1C(=O)N2C(C(=O)[O-])=C(SC3Cn4cnc[n+]4C3)[C@H](C)[C@H]12` (some centres unmarked) [BIPM, biapenem]?
Answer: MIC [1, 14]: 0.008 µg/mL; MIC [1, 15]: 0.031 µg/mL; MIC [2, 14]: 0.25 µg/mL; MIC [2, 15]: 4 µg/mL; MIC [3, 14]: 2 µg/mL; MIC [3, 15]: > 32 µg/mL; MIC ([4]; IAM1296, Concomitant (BIPM:SM = 1:1), read-out: MIC concomitant): 0.031 µg/mL; MIC ([4]; IAM1296, drug alone, read-out: MIC alone): 1 µg/mL; MIC ([5]; ATCC19433, Concomitant (BIPM:SM = 1:1), read-out: MIC concomitant): 1 µg/mL; MIC ([5]; ATCC19433, drug alone, read-out: MIC alone): 4 µg/mL; MIC ([6]; ML1410, Concomitant (BIPM:SM = 1:1), read-out: MIC concomitant): 0.063 µg/mL; MIC ([6]; ML1410, drug alone, read-out: MIC alone): 0.25 µg/mL; MIC ([7]; NIHJJC2, Concomitant (BIPM:SM = 1:1), read-out: MIC concomitant): 0.031 µg/mL; MIC ([7]; NIHJJC2, drug alone, read-out: MIC alone): 0.031 µg/mL; MIC ([8]; GN7919, Concomitant (BIPM:SM = 1:1), read-out: MIC concomitant): 0.25 µg/mL; MIC ([8]; GN7919, drug alone, read-out: MIC alone): 0.5 µg/mL; MIC ([9]; OX19, Concomitant (BIPM:SM = 1:1), read-out: MIC concomitant): 0.031 µg/mL; MIC ([9]; OX19, drug alone, read-out: MIC alone): 0.25 µg/mL; MIC ([10]; GN6473, Concomitant (BIPM:SM = 1:1), read-out: MIC concomitant): 0.125 µg/mL; MIC ([10]; GN6473, drug alone, read-out: MIC alone): 0.125 µg/mL; MIC ([11]; X100, Concomitant (BIPM:SM = 1:1), read-out: MIC concomitant): 0.063 µg/mL; MIC ([11]; X100, drug alone, read-out: MIC alone): 0.063 µg/mL; MIC ([12]; GN7471, Concomitant (BIPM:SM = 1:1), read-out: MIC concomitant): 0.063 µg/mL; MIC ([12]; GN7471, drug alone, read-out: MIC alone): 0.063 µg/mL; MIC ([13]; GN346, Concomitant (BIPM:SM = 1:1), read-out: MIC concomitant): 0.125 µg/mL; MIC ([13]; GN346, drug alone, read-out: MIC alone): 0.25 µg/mL
